Data as given in patent US20080227797A1, “Pyridopyrimidine Derivatives as Pde4 Inhibitors for the Treatment of Inflammatory and Immune Diseases” (ASTRAZENECA AB, priority 2005, published 2008).

Molecular target: recombinant Human Phosphodiesterase B2 (PDE4B2) (Homo sapiens, UniProt Q07343)
Test: Human Phosphodiesterase B2 Alpha Screen Assay
Assay type: biochemical
Details: cAMP substrate, Alpha Screen cAMP kit, 60 minutes at room temperature
Procedure, shortened: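 Recombinant human PDE4B2 preincubated 15 min at RT with compound in 50 mM Tris pH 7.5, 8.3 mM MgCl2, 1.7 mM EGTA, 0.01% Brij35, then reacted with cAMP for 60 min at RT. Stopped with EDTA; AlphaScreen beads with biotinylated cAMP incubated 5 h in the dark before reading. IC50 from curve fitting.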

Chain of recombinant Human Phosphodiesterase B2 (PDE4B2) (Q07343 1-564 isoform Q07343-2): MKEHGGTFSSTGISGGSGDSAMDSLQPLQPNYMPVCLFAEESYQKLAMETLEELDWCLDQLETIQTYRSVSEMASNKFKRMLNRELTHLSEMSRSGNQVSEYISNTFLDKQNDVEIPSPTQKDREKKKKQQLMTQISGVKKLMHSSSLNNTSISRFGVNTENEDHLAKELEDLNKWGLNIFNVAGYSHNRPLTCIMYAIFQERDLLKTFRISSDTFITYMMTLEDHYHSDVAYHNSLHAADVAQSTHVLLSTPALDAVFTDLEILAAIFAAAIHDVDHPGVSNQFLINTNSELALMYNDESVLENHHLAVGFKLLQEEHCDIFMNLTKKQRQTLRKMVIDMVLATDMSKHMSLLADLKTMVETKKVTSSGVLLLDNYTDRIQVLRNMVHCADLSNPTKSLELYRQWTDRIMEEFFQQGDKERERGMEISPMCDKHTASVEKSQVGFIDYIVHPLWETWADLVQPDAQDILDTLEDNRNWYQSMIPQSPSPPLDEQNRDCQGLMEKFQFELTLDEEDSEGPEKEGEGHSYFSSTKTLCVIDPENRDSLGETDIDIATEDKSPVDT

| IC50 | Structure (SMILES) |
| --- | --- |
| < 16 nM | CSc1cccc(-n2c(=O)n([C@H]3CC[C@@H](NC(=O)[C@@H](O)c4ccccc4)CC3)c(=O)c3cc(F)cnc32)c1 [Example 38, (2S)-N-{cis-4-[6-fluoro-1-[3-(methylthio)phenyl]-2,4-dioxo-1,4-dihydropyrido[2,3-d]pyrimidin-3(2H)-yl]cyclohexyl}-2-hydroxy-2-phenylacetamide] |
| 2.6 nM | O=C(N[C@H]1CC[C@@H](n2c(=O)c3cc(F)cnc3n(-c3ccc(F)c(F)c3)c2=O)CC1)c1ccccc1O [Example 10, N-{cis-4-[1-(3,4-difluorophenyl)-6-fluoro-2,4-dioxo-1,4-dihydropyrido[2,3-d]pyrimidin-3(2H)-yl]cyclohexyl}-2-hydroxybenzamide] |
| 1.5 nM | O=C(CCc1cccc(O)c1)N[C@H]1CC[C@@H](n2c(=O)c3cc(F)cnc3n(-c3ccc(F)c(F)c3)c2=O)CC1 [Example 31, N-{cis-4-[1-(3,4-difluorophenyl)-6-fluoro-2,4-dioxo-1,4-dihydropyrido[2,3-d]pyrimidin-3(2H)-yl]cyclohexyl}-3-(3-hydroxyphenyl)propanamide] |
| 2.05 nM | C=Cc1ccc(C(=O)N[C@H]2CC[C@@H](n3c(=O)c4cc(F)cnc4n(-c4ccc(F)c(F)c4)c3=O)CC2)cc1 [Example 101, N-{cis-4-[1-(3,4-difluorophenyl)-6-fluoro-2,4-dioxo-1,4-dihydropyrido[2,3-d]pyrimidin-3(2H)-yl]cyclohexyl}-4-vinylbenzamide] |
| 57.3 nM | O=C([C@H](O)c1ccccc1)N1CC[C@H](n2c(=O)c3cc(F)cnc3n(-c3ccc(F)c(F)c3)c2=O)C1 [Example 84, 1-(3,4-difluorophenyl)-6-fluoro-3-{(3S)-1-[(2R)-2-hydroxy-2-phenylacetyl]pyrrolidin-3-yl}pyrido[2,3-d]pyrimidine-2,4(1H,3H)-dione] |
| 3.9 nM | CSc1cccc(-n2c(=O)n([C@H]3CC[C@@H](NC(=O)C4CCCC4)CC3)c(=O)c3cc(F)cnc32)c1 [Example 58, N-{cis-4-[6-fluoro-1-[3-(methylthio)phenyl]-2,4-dioxo-1,4-dihydropyrido[2,3-d]pyrimidin-3(2H)-yl]cyclohexyl}cyclopentanecarboxamide] |
| 3.2 nM | Cc1c(O)cccc1C(=O)N[C@H]1CC[C@@H](n2c(=O)c3cc(F)cnc3n(-c3ccc(F)c(F)c3)c2=O)CC1 [Example 13, N-{cis-4-[1-(3,4-difluorophenyl)-6-fluoro-2,4-dioxo-1,4-dihydropyrido[2,3-d]pyrimidin-3(2H)-yl]cyclohexyl}-3-hydroxy-2-methylbenzamide] |
| < 16 nM | COC(=O)c1cccc(-n2c(=O)n([C@H]3CC[C@@H](NC(=O)c4cc(C)ccc4O)CC3)c(=O)c3cc(F)cnc32)c1 [Example 45, methyl 3-[6-fluoro-3-{cis-4-[(2-hydroxy-5-methylbenzoyl)amino]cyclohexyl}-2,4-dioxo-3,4-dihydropyrido[2,3-d]pyrimidin-1(2H)-yl]benzoate] |
| 16.3 nM | O=C(CO)N[C@H]1CC[C@@H](n2c(=O)c3cc(F)cnc3n(-c3ccc(F)c(F)c3)c2=O)CC1 [Example 3, N-{cis-4-[1-(3,4-difluorophenyl)-6-fluoro-2,4-dioxo-1,4-dihydropyrido[2,3-d]pyrimidin-3(2H)-yl]cyclohexyl}-2-hydroxyacetamide] |
| 15.4 nM | O=C(c1n[nH]c2ccccc12)N1CC[C@@H](n2c(=O)c3cc(F)cnc3n(-c3ccc(F)c(F)c3)c2=O)C1 [Example 79, 1-(3,4-difluorophenyl)-6-fluoro-3-[(3R)-1-(1H-indazol-3-ylcarbonyl)pyrrolidin-3-yl]pyrido[2,3-d]pyrimidine-2,4(1H,3H)-dione] |
| 7.2 nM | CCC(=O)N[C@H]1CC[C@@H](n2c(=O)c3cc(F)cnc3n(-c3cccc(SC)c3)c2=O)CC1 [Example 56, N-{cis-4-[6-fluoro-1-[3-(methylthio)phenyl]-2,4-dioxo-1,4-dihydropyrido[2,3-d]pyrimidin-3(2H)-yl]cyclohexyl}propanamide] |
| 2.2 nM | O=C(N[C@H]1CC[C@@H](n2c(=O)c3cc(F)cnc3n(-c3ccc(F)c(F)c3)c2=O)CC1)c1cccc(O)c1 [Example 5, N-{cis-4-[1-(3,4-difluorophenyl)-6-fluoro-2,4-dioxo-1,4-dihydropyrido[2,3-d]pyrimidin-3(2H)-yl]cyclohexyl}-3-hydroxybenzamide] |
| 4.9 nM | O=C(N[C@H]1CC[C@@H](n2c(=O)c3cc(F)cnc3n(-c3ccc(F)c(F)c3)c2=O)CC1)c1cc(CO)ccc1O [Example 1, N-{cis-4-[1-(3,4-difluorophenyl)-6-fluoro-2,4-dioxo-1,4-dihydropyrido[2,3-d]pyrimidin-3(2H)-yl]cyclohexyl}-2-hydroxy-5-(hydroxymethyl)benzamide] |
| 129 nM | Cc1ccc(O)c(C(=O)N[C@H]2CC[C@@H](N3C(=O)c4cc(F)cnc4N(c4ccc(F)c(F)c4)[S+]3[O-])CC2)c1 (relative stereo) [Example 46, N-{cis-4-[1-(3,4-Difluorophenyl)-6-fluoro-2-oxido-4-oxo-1,4-dihydro-3H-pyrido[2,3-c][1,2,6]thiadiazin-3-yl]cyclohexyl}-2-hydroxy-5-methylbenzamide] |
| 0.4 nM | O=C(N[C@H]1CC[C@@H](n2c(=O)c3cc(F)cnc3n(-c3ccc(F)c(F)c3)c2=O)CC1)c1cccc2cccnc12 [Example 53, N-{cis-4-[1-(3,4-difluorophenyl)-6-fluoro-2,4-dioxo-1,4-dihydropyrido[2,3-d]pyrimidin-3(2H)-yl]cyclohexyl}quinoline-8-carboxamide] |
| 3.39 nM | O=C(N[C@H]1CC[C@@H](n2c(=O)c3cc(F)cnc3n(-c3ccc(F)c(F)c3)c2=O)CC1)c1ccsc1 [Example 95, N-{cis-4-[1-(3,4-difluorophenyl)-6-fluoro-2,4-dioxo-1,4-dihydropyrido[2,3-d]pyrimidin-3(2H)-yl]cyclohexyl}thiophene-3-carboxamide] |
| 2.6 nM | CSc1cccc(-n2c(=O)n([C@H]3CC[C@@H](NC(=O)C4CC4)CC3)c(=O)c3cc(F)cnc32)c1 [Example 55, N-{cis-4-[6-fluoro-1-[3-(methylthio)phenyl]-2,4-dioxo-1,4-dihydropyrido[2,3-d]pyrimidin-3(2H)-yl]cyclohexyl}cyclopropanecarboxamide] |
| 6.3 nM | COC(=O)c1cccc(-n2c(=O)n([C@H]3CC[C@@H](NC(=O)C(C)C)CC3)c(=O)c3cc(F)cnc32)c1 [Example 62, methyl 3-[6-fluoro-3-[cis-4-(isobutyrylamino)cyclohexyl]-2,4-dioxo-3,4-dihydropyrido[2,3-d]pyrimidin-1(2H)-yl]benzoate] |
| 5.2 nM | O=C(N[C@H]1CC[C@@H](n2c(=O)c3cc(F)cnc3n(-c3ccc(F)c(F)c3)c2=O)CC1)c1ccc(F)cc1O [Example 51, N-{cis-4-[1-(3,4-difluorophenyl)-6-fluoro-2,4-dioxo-1,4-dihydropyrido[2,3-d]pyrimidin-3(2H)-yl]cyclohexyl}-4-fluoro-2-hydroxybenzamide] |
| 6.03 nM | O=C(N[C@H]1CC[C@@H](n2c(=O)c3cc(F)cnc3n(-c3ccc(F)c(F)c3)c2=O)CC1)c1cc2cccnc2s1 [Example 105, N-{cis-4-[1-(3,4-difluorophenyl)-6-fluoro-2,4-dioxo-1,4-dihydropyrido[2,3-d]pyrimidin-3(2H)-yl]cyclohexyl}thieno[2,3-b]pyridine-2-carboxamide] |
